According to patent US20240423961A1, “1H-1,2,3-TRIAZOLE-4-CARBOXYLIC ACIDS FOR TREATMENT OF HYPEROXALURIA AND KIDNEY STONES” (CANTERO THERAPEUTICS, INC., priority 2021, published 2024):
Like-named read-outs stand apart in the source and are kept apart here.

Experiment: Phase 1 SAD/MAD study: plasma pharmacokinetics of Compound 1a (LC-MS-MS, noncompartmental analysis)
Format: in vivo, human
Conditions: for Cmax / Tmax / half-life / AUC(0-t) / Cmax at 7 days / Tmax at 7 days / AUC(0-inf): human, plasma; for Cmax at 7 days: read-out: Day 7 Cmax; for Tmax at 7 days: read-out: Day 7 Tmax
Method: Pharmacokinetics: Human K2-ethylenediaminetetraacetic acid (K2-EDTA) plasma samples were analyzed for Compound 1a by a validated method over a range of 1.0 to 1000 ng/mL based on the analysis of 100 μL of sample. Human plasma containing Compound 1a and the internal standard, Compound 1a-D4, was extracted using liquid-liquid extraction and analyzed by a Sciex API 4000 LC-MS-MS equipped with an HPLC column. The peak area of the m/z 370.2→298.0 Compound 1a product ion was measured against the peak area of the m/z 374.3→302.4 Compound 1a-D4 internal standard product ion. Quantitation was performed using a weighted 1/x^2 linear least squares regression analysis generated from calibration standards prepared on the day of extraction.
Pharmacokinetic analysis: Pharmacokinetic calculations based on Compound 1a plasma concentrations were performed using noncompartmental analysis in Phoenix WinNonlin (Certara, Princeton, New Jersey). […] Accumulation ratio based on Cmax was calculated as (Cmax,day 7)/(Cmax, day 1).
Subject disposition: Six cohorts of 6 to 8 subjects each (N=up to 48) were administered single doses of 40, 120, 360, 1,000, 2,000, and 3,000 mg of Compound 1a in Part A under fasting conditions. Following a 2-week washout, subjects in the 1,000 mg cohort were administered a second 1,000 mg single dose following a high-fat breakfast. Six cohorts of 8 healthy subjects each were administered multiple doses of 75 mg […] (qd), 125 mg every 12 hours (q12 h), 500 mg q12 h, 500 mg qd, 750 mg qd, and 1,000 mg qd for 7 days in the MAD Part B (FIG. 1).

[1] = oral, 75 mg, MAD 75 mg qd for 7 days, average
[2] = oral, 125 mg, MAD 125 mg q12h for 7 days, average
[3] = oral, 500 mg, MAD 500 mg q12h for 7 days, average
[4] = oral, 500 mg, MAD 500 mg qd for 7 days, average
[5] = oral, 750 mg, MAD 750 mg qd for 7 days, average
[6] = oral, 1000 mg, MAD 1000 mg qd for 7 days, average
[7] = po, 40 mg, SAD 40 mg oral, fasted, average
[8] = po, 120 mg, SAD 120 mg oral, fasted, average
[9] = po, 360 mg, SAD 360 mg oral, fasted, average
[10] = po, 1000 mg, SAD 1,000 mg oral, fasted, average
[11] = po, 1000 mg, SAD 1,000 mg oral, fed, average
[12] = po, 2000 mg, SAD 2,000 mg oral, fasted, average
[13] = po, 3000 mg, SAD 3,000 mg oral, fasted, average

O.O=C([O-])c1nn[nH]c1Oc1ccc(-c2ccc(C3CC(F)(F)C3)cc2)cc1.[Na+] [Compound 1a, sodium 5-((4′-(3,3-difluorocyclobutyl)-[1,1′-biphenyl]-4-yl)oxy)-1H-1,2,3-triazole-4-carboxylate monohydrate]
Cmax (oral, 40 mg, single dose 40 mg, healthy volunteers, geometric mean): 2040 ng/mL | Tmax (oral, 40 mg, single dose 40 mg, healthy volunteers, geometric mean (geometric CV %), read-out: Tmax): 1.9 h | half-life (oral, 40 mg, single dose 40 mg, healthy volunteers, geometric mean (geometric CV %), read-out: t1/2 (converted)): 25 h | AUC(0-t) (oral, 40 mg, single dose 40 mg, healthy volunteers, geometric mean, read-out: AUClast): 13.9 µg·h/mL | AUC(0-t) (oral, 75 mg, MAD 75 mg qd for 7 days, average, read-out: Day 7 AUC0-24): 23.9 µg·h/mL | Cmax at 7 days [1]: 3420 ng/mL | Tmax at 7 days [1]: 2.45 h | Cmax (oral, 120 mg, single dose 120 mg, healthy volunteers, geometric mean): 5020 ng/mL | Tmax (oral, 120 mg, single dose 120 mg, healthy volunteers, geometric mean (geometric CV %), read-out: Tmax): 2.3 h | half-life (oral, 120 mg, single dose 120 mg, healthy volunteers, geometric mean (geometric CV %), read-out: t1/2 (converted)): 22 h | AUC(0-t) (oral, 120 mg, single dose 120 mg, healthy volunteers, geometric mean, read-out: AUClast): 41 µg·h/mL | AUC(0-t) (oral, 125 mg, MAD 125 mg q12h for 7 days, average, read-out: Day 7 AUC0-12): 45.6 µg·h/mL | Cmax at 7 days [2]: 6450 ng/mL | Tmax at 7 days [2]: 2.04 h | Cmax (oral, 360 mg, single dose 360 mg, healthy volunteers, geometric mean): 10500 ng/mL | Tmax (oral, 360 mg, single dose 360 mg, healthy volunteers, geometric mean (geometric CV %), read-out: Tmax): 2.3 h | half-life (oral, 360 mg, single dose 360 mg, healthy volunteers, geometric mean (geometric CV %), read-out: t1/2 (converted)): 26 h | AUC(0-t) (oral, 360 mg, single dose 360 mg, healthy volunteers, geometric mean, read-out: AUClast): 83.2 µg·h/mL | AUC(0-t) (oral, 500 mg, MAD 500 mg q12h for 7 days, average, read-out: Day 7 AUC0-12): 342 µg·h/mL | Cmax at 7 days [3]: 43800 ng/mL | Tmax at 7 days [3]: 1.44 h | AUC(0-t) (oral, 500 mg, MAD 500 mg qd for 7 days, average, read-out: Day 7 AUC0-24): 133 µg·h/mL | Cmax at 7 days [4]: 17000 ng/mL | Tmax at 7 days [4]: 2.35 h | AUC(0-t) (oral, 750 mg, MAD 750 mg qd for 7 days, average, read-out: Day 7 AUC0-24): 214 µg·h/mL | Cmax at 7 days [5]: 24300 ng/mL | Tmax at 7 days [5]: 2.62 h | AUC(0-t) (oral, 1000 mg, MAD 1000 mg qd for 7 days, average, read-out: Day 7 AUC0-24): 303 µg·h/mL | Cmax at 7 days [6]: 29900 ng/mL | Tmax at 7 days [6]: 2.18 h | Cmax (oral, 1000 mg, single dose 1000 mg, healthy volunteers, geometric mean): 17200 ng/mL | Tmax (oral, 1000 mg, single dose 1000 mg, healthy volunteers, geometric mean (geometric CV %), read-out: Tmax): 2.5 h | half-life (oral, 1000 mg, single dose 1000 mg, healthy volunteers, geometric mean (geometric CV %), read-out: t1/2 (converted)): 28 h | AUC(0-t) (oral, 1000 mg, single dose 1000 mg, healthy volunteers, geometric mean, read-out: AUClast): 184 µg·h/mL | Tmax (oral, 1000 mg, single dose of 1,000 mg, fasted, read-out: average Tmax): 3 h | half-life (oral, 1000 mg, single dose of 1,000 mg, fasted, read-out: t1/2 (converted)): ~26.8 h | Tmax (oral, 1000 mg, single dose of 1,000 mg, fed, read-out: average Tmax): 5.9 h | half-life (oral, 1000 mg, single dose of 1,000 mg, fed, read-out: t1/2 (converted)): ~25.2 h | Cmax (oral, 2000 mg, single dose 2000 mg, healthy volunteers, geometric mean): 25600 ng/mL | Tmax (oral, 2000 mg, single dose 2000 mg, healthy volunteers, geometric mean (geometric CV %), read-out: Tmax): 2.9 h | half-life (oral, 2000 mg, single dose 2000 mg, healthy volunteers, geometric mean (geometric CV %), read-out: t1/2 (converted)): 23 h | AUC(0-t) (oral, 2000 mg, single dose 2000 mg, healthy volunteers, geometric mean, read-out: AUClast): 312 µg·h/mL | Cmax (oral, 3000 mg, single dose 3000 mg, healthy volunteers, geometric mean): 22500 ng/mL | Tmax (oral, 3000 mg, single dose 3000 mg, healthy volunteers, geometric mean (geometric CV %), read-out: Tmax): 2.9 h | half-life (oral, 3000 mg, single dose 3000 mg, healthy volunteers, geometric mean (geometric CV %), read-out: t1/2 (converted)): 34 h | AUC(0-t) (oral, 3000 mg, single dose 3000 mg, healthy volunteers, geometric mean, read-out: AUClast): 225 µg·h/mL | Tmax (oral, single-dose administration of 40 mg to 3,000 mg, read-out: average plasma Tmax values across dose levels): 1.9 to 2.9 h | half-life (oral, single-dose administration of 40 mg to 3,000 mg, read-out: average t1/2 across dose levels): 21.9 to 33.7 h | AUC(0-inf) [7]: 14 µg·h/mL | Cmax [7]: 2040 ng/mL | AUC(0-t) (po, 40 mg, SAD 40 mg oral, fasted, average, read-out: AUC0-24): 12.1 µg·h/mL | Tmax (po, 40 mg, SAD 40 mg oral, fasted, average, read-out: Tmax): 1.89 h | half-life (po, 40 mg, SAD 40 mg oral, fasted, average, read-out: t1/2 (converted)): 24.6 h | AUC(0-inf) [8]: 41.4 µg·h/mL | Cmax [8]: 5020 ng/mL | half-life (po, 120 mg, SAD 120 mg oral, fasted, average, plasma (N = 5), read-out: t1/2 (converted)): 21.9 h | AUC(0-t) (po, 120 mg, SAD 120 mg oral, fasted, average, read-out: AUC0-24): 36.7 µg·h/mL | Tmax (po, 120 mg, SAD 120 mg oral, fasted, average, read-out: Tmax): 2.29 h | AUC(0-inf) [9]: 83.3 µg·h/mL | Cmax [9]: 10500 ng/mL | AUC(0-t) (po, 360 mg, SAD 360 mg oral, fasted, average, read-out: AUC0-24): 74.1 µg·h/mL | Tmax (po, 360 mg, SAD 360 mg oral, fasted, average, read-out: Tmax): 2.28 h | half-life (po, 360 mg, SAD 360 mg oral, fasted, average, read-out: t1/2 (converted)): 25.9 h | AUC(0-inf) [10]: 214 µg·h/mL | Cmax [10]: 19500 ng/mL | AUC(0-t) (po, 1000 mg, SAD 1,000 mg oral, fasted, average, read-out: AUC0-24): 174 µg·h/mL | Tmax (po, 1000 mg, SAD 1,000 mg oral, fasted, average, read-out: Tmax): 3 h | half-life (po, 1000 mg, SAD 1,000 mg oral, fasted, average, read-out: t1/2 (converted)): 26.8 h | AUC(0-inf) [11]: 237 µg·h/mL | Cmax [11]: 14700 ng/mL | AUC(0-t) (po, 1000 mg, SAD 1,000 mg oral, fed, average, read-out: AUC0-24): 180 µg·h/mL | Tmax (po, 1000 mg, SAD 1,000 mg oral, fed, average, read-out: Tmax): 5.86 h | half-life (po, 1000 mg, SAD 1,000 mg oral, fed, average, read-out: t1/2 (converted)): 25.2 h | AUC(0-inf) [12]: 312 µg·h/mL | Cmax [12]: 25600 ng/mL | AUC(0-t) (po, 2000 mg, SAD 2,000 mg oral, fasted, average, read-out: AUC0-24): 253 µg·h/mL | Tmax (po, 2000 mg, SAD 2,000 mg oral, fasted, average, read-out: Tmax): 2.94 h | half-life (po, 2000 mg, SAD 2,000 mg oral, fasted, average, read-out: t1/2 (converted)): 23.4 h | AUC(0-inf) [13]: 226 µg·h/mL | Cmax [13]: 22500 ng/mL | AUC(0-t) (po, 3000 mg, SAD 3,000 mg oral, fasted, average, read-out: AUC0-24): 184 µg·h/mL | Tmax (po, 3000 mg, SAD 3,000 mg oral, fasted, average, read-out: Tmax): 2.94 h | half-life (po, 3000 mg, SAD 3,000 mg oral, fasted, average, read-out: t1/2 (converted)): 33.7 h | Overall exposure, fed versus fasted (food effect) (single dose of 1,000 mg, same cohort, 2-week washout): slightly lower under fed than under fasted conditions
